Source: patent US11940444B2, “Method of stabilizing molecules without refrigeration using water soluble polymers and applications thereof in performing chemical reactions” (priority 2013, dated 2024)

Columns and labels:
[1] = ATCh stability (Ellman assay reagents); assay type: physicochemical; details: several days in the refrigerator and in a fume hood with no protection
Experimental: When tested in solution, with the following amounts of reagents were used: • i. 15 uL ATCh (300 uM), 1 uL AChE (10 or 250 U/L) • ii. 50 uL of 500 uM DTNB • iii. 34 uL Tris
Acetylthiocholine (ATCh) is an unstable molecule, and will hopefully be stabilized on paper. However, after several tests were performed, it was noted that after being left in the refrigerator for several days, and left in a fume hood with no protection against hydrolyzation, the ATCh was still stable when tested. The most likely reason for the continued activity of the ATCh is due to the Tris buffer it was dissolved in being evaporated, and the ATCh in a solid (or powdered) form is stable. Accordingly, it should be reliable to store the ATCh as a powder form, preferably inside of a soluble (pullulan) capsule.

Luciferase = target: T1, Luciferase (Photinus pyralis, UniProt P08659); test: ATP detection assay with luminescent pills; assay type: biochemical, Firefly
T1 construct: purchased Sigma-Aldrich
Experimental: The sensitivity of the luciferase assay was also investigated. To determine the detection limit of the assay, different ATP buffers were prepared with concentration ranging from 0 pM to 1000 pM and tested it with luminescent pills.

Acetylcholinesterase = details: Michaelis rate law, literature (Sadar and Laidler 1974); cited from earlier work
AChE = AChE (Electrophorus electricus, UniProt O42275); test: Pesticide tests in Eppendorf tubes (AChE/IDA color change); assay type: biochemical; details: No. 1: malathion 10-2 mol/L, 5 μL AChE, 250 mg/mL pullulan, 30 μL, incubation 15 min
Experimental: Three trials were conducted with fresh malathion (from Bioninterfaces Institute), which was diluted with Tris buffer to a concentration of 10-2 mol/L. A control sample was also done with 5 μL of AChE and 250 mg/mL pullulan to ensure that a color change would occur. The color change was initially green (˜2 minutes), then became a blue color which increased in intensity over time.
Information about the contents and the results of each Eppendorf tube test with pesticides is presented below. A control test was performed with 5 μL of AChE and L of dH2O with 5 μL of IDA/methanol, and the color change to blue-green was very quick.

[2] = Comparison of AChE activity with different concentrations of pullulan after 2 weeks; assay type: physicochemical; details: AChE in 125 and 250 mg/mL pullulan, 2 weeks age
Experimental: To determine the effect the concentration of pullulan has on the maintenance of the AChE enzyme two samples of 2 weeks age were tested (125 and 250 mg/mL). […] More trials will be conducted at 1 week intervals to determine if there is a noticeable color intensity difference over time.

[3] = AChE stability over time in pullulan (reaction rate with IDA, absorbance at 605 nm); assay type: physicochemical
Experimental: In order to quantify the protection that pullulan provides to AChE over time, it was attempted to create a set of samples (40) which will be tested over time. Each sample (cast into a 600 μL eppendorf tube) contains: • i. 40 μL of 200 mg/mL pullulan solution • ii. μL of AChE (250 U/L)
Each sample tube was allowed to dry, then was sealed and placed into a plastic bag and stored at ambient conditions (˜20° C.). At selected time points, the activity of the solution was tested by measuring absorbance over time, and finding the associated reaction rate (corresponding to the activity of the enzyme). To measure the activity, three (3) samples were taken (to establish triplicate repeats), and 195 μL of Tris buffer (100 mM, pH=8.0) was added to each Eppendorf tube and allowed to dissolve the […]. The resulting solution was then added to a 96 well plate, and absorbance was measured continuously at 605 nm after the addition of 5 μL of 80 mM IDA.

[4] = Long-term stability of AChE and IDA tablets stored at room temperature; assay type: physicochemical
Experimental: To test the ability of pullulan to retain IDA activity, 10 μL of 40 mM IDA and 40 μL of 120 g/L pullulan in water were mixed and casted in a polypropylene mold with wells with a size of 3 mm in diameter×3 mm in depth. The solution was air-dried overnight at 21° C. and 48% RH; tablet formation was considered not fully completed if the tablet could not be removed from the bottom of the well. […] To test IDA activity, 199 μL of Tris-HCl (100 mM, pH 8) was used to dissolve the pill and 1 μL of fresh 250 U/mL AChE was added. The solution was then transferred to a 96-well plate and the absorbance of the developing blue color was measured at A605 on a TECAN Infinite M200 Pro microtiter plate reader.
To test the ability of pullulan to retain AChE activity, 1 μL of 250 U/mL AChE and 40 μL of 120 g/L pullulan were mixed and casted into tablets. The solution was air-dried overnight at 21° C. and 48% RH; tablet formation was considered not fully completed if the tablet could not be removed from the bottom of the well; […] To test AChE activity, 195 μL of Tris-HCl (100 mM, pH 8) was used to dissolve the tablet and 5 μL of fresh 80 mM IDA was added. The solution was then transferred to a 96-well plate and the absorbance was measured at A605 on TECAN Infinite M200 Pro microtiter plate reader.

[5] = Loss of AChE activity as a function of temperature (30 min heat treatment); assay type: physicochemical; details: 30-minute heat treatment at 50° C. or above
Experimental: To test the ability of pullulan to retain AChE activity, 1 μL of 250 U/mL AChE and 40 μL of 120 g/L pullulan were mixed and casted into tablets. The solution was air-dried overnight at 21° C. and 48% RH; tablet formation was considered not fully completed if the tablet could not be removed from the bottom of the well; and the resulting tablets were kept at room temperature for different lengths of time before being tested. To test AChE activity, 195 μL of Tris-HCl (100 mM, pH 8) was used to dissolve the tablet and 5 μL of fresh 80 mM IDA was added. The solution was then transferred to a 96-well plate and the absorbance was measured at A605 on TECAN Infinite M200 Pro microtiter plate reader.
The loss of AChE activity, however, is attributed to thermal denaturation. To further examine the role of pullulan in stabilizing AChE, activity of AChE was monitored as a function of temperature. For this experiment, native (unencapsulated) AChE and the corresponding pullulan tablet were treated at a given temperature for 30 min, followed by activity assessment at room temperature. […] In stark contrast, AChE tablets retained ca. 90% of their initial activity even after a 30-minute incubation at 90° C.

[6] = Stability of 'all-in-one' luminescent pills at room storage condition; assay type: physicochemical
Experimental: All reagents for the luciferase assay except for adenosine triphospate (ATP) were casted in a single pullulan pill. For the pullulan pills aqueous solutions of 10 mM Luciferin, […], 27 mM Coenzyme A (CoA), 170 mM Dithiothreitol (DTT), 10 mM Ethylenediaminetetraacetic acid (EDTA), 107 mM MgCO3, and 267 mM MgSO4 were prepared. 200 μL of each solution was added to 8 mL of 12 w/v % Pullulan solution. Lastly, for each pill 47 μL of the final solution was pipetted onto a PET film and dried in a glove box under nitrogen. The casted pills were then stored at room temperature.
A buffer solution containing ATP was prepared to test the activity of the luciferase pills. For the buffer solution, 16 mL of water was added to 2 mL of 2.5 mM ATP and 2 mL of 200 mM Tricine and the pH was adjusted to pH 7.8.
Once the pills were completely dried, they were collected in dark bottles. The pills were stored at room temperature and the activity of the pills was tested over time. On the day the pills were prepared, the activity of the fresh pullulan and reagent solution was tested. 47 μL of the solution and 100 μL of the buffer were added to a 96 well-plate and the luminescence was measured using the TECAN M1000. On subsequent days, the activity of the pills was measured by placing a single pill into a well and 100 μL of ATP buffer. Each test was performed with three repeats.

[7] = Testing IDA capsules and pullulan films (IDA protection); assay type: physicochemical
Experimental: 15 μL of IDA dissolved in methanol was added to a pullulan capsule (cast in an eppendorf tube lid), and sealed with a 5 mL (50 mg/mL, 3.5 cm petri dish) PVA film using a PVA glue solution. Another capsule was prepared with IDA in a powdered form. The capsules were left to determine if the PVA will serve as an oxygen barrier to protect the IDA from oxidation over a period of time
In order to determine if pullulan works to stabilize IDA when the IDA is mixed into the pullulan solution, a solution of 300 mg/mL pullulan was mixed, and 5 μL of IDA dissolved in methanol was added to each 30 μL of sample.
Five samples were cast (total volume of 35 μL) into the caps of 0.6 mL Eppendorf microcentrifuge tubes and left to dry. The activity of the IDA will be measured by: • i. checking for a pink/red color change, which indicates the IDA is hydrolysed or oxidized • ii. testing with AChE to ensure that a blue color change still results Pesticide Tests
Previously explored was the addition of IDA (solution and powder form) to two PVA capsules. 5 uL of IDA dissolved in methanol was added to one, and IDA in powder form was added to the other.
Also tested was one of the capsules with IDA solution cast into a pullulan film (in the lid of a 0.6 mL eppendorf tube). […]

T1 sequence (P08659 whole entry): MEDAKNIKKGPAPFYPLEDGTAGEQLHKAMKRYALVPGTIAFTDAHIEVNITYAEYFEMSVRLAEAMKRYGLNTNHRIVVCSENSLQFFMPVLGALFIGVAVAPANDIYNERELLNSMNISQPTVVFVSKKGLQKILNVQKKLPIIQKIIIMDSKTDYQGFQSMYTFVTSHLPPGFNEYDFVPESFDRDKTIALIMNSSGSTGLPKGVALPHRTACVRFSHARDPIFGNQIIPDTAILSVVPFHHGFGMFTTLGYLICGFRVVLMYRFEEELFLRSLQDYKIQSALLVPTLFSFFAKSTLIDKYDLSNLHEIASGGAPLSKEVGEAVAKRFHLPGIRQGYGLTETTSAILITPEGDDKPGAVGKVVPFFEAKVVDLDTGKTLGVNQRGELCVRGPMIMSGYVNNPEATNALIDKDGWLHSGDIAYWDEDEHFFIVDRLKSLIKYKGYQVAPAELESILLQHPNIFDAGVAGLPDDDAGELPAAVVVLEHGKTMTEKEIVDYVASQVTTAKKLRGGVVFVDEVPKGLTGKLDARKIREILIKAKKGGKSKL
Chain of AChE (O42275 24-633): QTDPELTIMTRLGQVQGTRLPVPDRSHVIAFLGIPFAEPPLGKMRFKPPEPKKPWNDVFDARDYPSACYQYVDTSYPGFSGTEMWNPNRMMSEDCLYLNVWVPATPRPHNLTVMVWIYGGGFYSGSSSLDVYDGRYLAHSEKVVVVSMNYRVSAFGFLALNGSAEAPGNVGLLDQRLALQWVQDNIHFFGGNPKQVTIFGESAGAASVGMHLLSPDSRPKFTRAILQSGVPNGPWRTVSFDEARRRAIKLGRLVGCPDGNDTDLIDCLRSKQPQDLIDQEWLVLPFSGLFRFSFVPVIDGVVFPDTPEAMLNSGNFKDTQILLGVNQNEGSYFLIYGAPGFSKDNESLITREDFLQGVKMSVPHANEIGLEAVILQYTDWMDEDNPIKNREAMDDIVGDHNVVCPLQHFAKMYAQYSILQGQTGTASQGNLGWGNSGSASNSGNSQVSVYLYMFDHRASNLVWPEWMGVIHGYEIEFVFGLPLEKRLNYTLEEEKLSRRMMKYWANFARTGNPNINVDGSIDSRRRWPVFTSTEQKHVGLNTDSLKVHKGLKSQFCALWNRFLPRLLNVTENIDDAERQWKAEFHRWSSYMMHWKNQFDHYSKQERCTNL

Molecule: CC(=O)SCC[N+](C)(C)C [ATCh, Acetylthiocholine]
- stability of ATCh [1]: still stable

Molecule: Nc1ncnc2c1ncn2[C@@H]1O[C@H](COP(=O)(O)OP(=O)(O)OP(=O)(O)O)[C@@H](O)[C@H]1O [ATP, Adenosine triphosphate]
- limit of detection of ATP concentration (Luciferase; at 3a above background, tricine buffer): 16 pM
- limit of detection as amount of ATP (Luciferase; in 100 uL added to the pill): 1.6 fmol

Molecule: CC(=O)Oc1cn(C)c2ccccc12 [N-methylindoxyl acetate]
- Km (Acetylcholinesterase): 2580 µM
- kc (Acetylcholinesterase): 320 s⁻¹

Molecule: CCOC(=O)CC(SP(=S)(OC)OC)C(=O)OCC (centres unmarked) [malathion]
- Result (color change) (AChE): IDA/methanol. No color change at 5 minutes.

Molecule: Acetylcholinesterase [AChE]
- activity of the enzyme over two weeks [2]: not much decreased
- activity as compared to a fresh sample ([3]; AChE cast in 200 mg/mL pullulan, stored at ambient conditions (~20 °C), over 30 days): approximately 63%
- activity of AChE left out without pullulan ([3]; without any pullulan, left out for 24 hours): completely inactivated
- time to become completely inactive ([4]; stored in solution at room temperature): ≤ 3 days
- activity after heat treatment [5]: completely inactive

Molecule: Luciferase
- loss of activity in buffer ([6]; same components stored in buffer solution): loses its activity in buffer solution in few hours
- activity of enzyme alone in pullulan pills ([6]; stored at room temperature): active even after four months

Molecule: indoxyl acetate [IDA]
- time protected from hydrolyzation/oxidation ([7]; IDA solution cast into a pullulan film): ~2 weeks
- IDA stability in PVA capsules ([7]; IDA solution or powder in PVA capsules, tested with AChE): kept stable over a period of two weeks
- complete inactivation ([4]; in solution at room temperature): completely inactive within a week
- loss of activity ([4]; in solution at room temperature, within one day): 70%
